Test results taken from ChEMBL document CHEMBL1151469, “Cytotoxic activity of N-chlorotaurine on Acanthamoeba spp” (Antimicrob Agents Chemother, 2008).
Calls of active or inactive are those of the source. The rule behind the calls is not given here.

Experiments:
[1] = system: Acanthamoeba polyphaga; assay: Amoebicidal activity against Trophozoites of Acanthamoeba polyphaga 5SU at 55 mM in phosphate buffered saline at pH 7 after 1 hr by hemocytometer using trypan blue stain in presence of 190 mM ammonium chloride; type: functional, organism-based
[2] = system: Acanthamoeba polyphaga; assay: Amoebicidal activity against Trophozoites of Acanthamoeba polyphaga 5SU assessed as log reduction in cell count at 10 mM in phosphate buffered saline at pH 5 after 6 hrs by hemocytometer using trypan blue stain in presence of 34 mM ammonium chloride; type: functional, organism-based
[3] = system: Acanthamoeba polyphaga; assay: Amoebicidal activity against Trophozoites of Acanthamoeba polyphaga 5SU assessed as log reduction in cell count at 10 mM in phosphate buffered saline at pH 5 after 1 hr by hemocytometer using trypan blue stain in presence of 34 mM ammonium chloride; type: functional, organism-based
[4] = system: Acanthamoeba hatchetti; assay: Amoebicidal activity against Trophozoites of Acanthamoeba hatchetti 11DS assessed as killing time at 10 mM in phosphate buffered saline at pH 5 by hemocytometer using trypan blue stain in presence of 290 mM ammonium chloride; type: functional
[5] = system: Acanthamoeba hatchetti; assay: Amoebicidal activity against Trophozoites of Acanthamoeba hatchetti 11DS assessed as log reduction in cell count at 20 mM in peptone yeast extract glucose medium at pH 7 after 6 hrs by hemocytometer using trypan blue stain; type: functional, organism-based
[6] = system: Acanthamoeba hatchetti; assay: Amoebicidal activity against Trophozoites of Acanthamoeba hatchetti 11DS assessed as rounding of the cells at 55 mM in peptone yeast extract glucose medium at pH 7 after 30 mins by hemocytometer using trypan blue stain; type: functional, organism-based
[7] = system: Acanthamoeba hatchetti; assay: Amoebicidal activity against Trophozoites of Acanthamoeba hatchetti 11DS assessed as reduction in cell count at 10 mM in phosphate buffered saline at pH 7 within 1 hr by hemocytometer using trypan blue stain in presence of 290 mM ammonium chloride; type: functional, organism-based
[8] = system: Acanthamoeba polyphaga; assay: Amoebicidal activity against Trophozoites of Acanthamoeba polyphaga 5SU assessed as increase in cell killing at 10 mM in phosphate buffered saline at pH 7 within 3 hrs by hemocytometer using trypan blue stain in presence of 34 mM ammonium chloride; type: functional, organism-based
[9] = system: Acanthamoeba castellanii; assay: Amoebicidal activity against Trophozoites of Acanthamoeba castellanii 4CL assessed as log reduction in cell count at 10 mM in phosphate buffered saline at pH 7 after 6 hrs by hemocytometer using trypan blue stain; type: functional
[10] = system: Acanthamoeba castellanii; assay: Amoebicidal activity against Trophozoites of Acanthamoeba castellanii 40AB assessed as log reduction in cell count at 10 mM in phosphate buffered saline at pH 7 after 6 hrs by hemocytometer using trypan blue stain; type: functional
[11] = system: Acanthamoeba hatchetti; assay: Amoebicidal activity against Trophozoites of Acanthamoeba hatchetti 11DS assessed as log reduction in cell count at 20 mM in peptone yeast extract glucose medium at pH 7 after 24 hrs by hemocytometer using trypan blue stain; type: functional
[12] = system: Acanthamoeba castellanii; assay: Amoebicidal activity against Trophozoites of Acanthamoeba castellanii 4CL assessed as killing time at 20 mM in peptone yeast extract glucose medium at pH 7 by hemocytometer using trypan blue stain; type: functional
[13] = system: Acanthamoeba polyphaga; assay: Amoebicidal activity against Trophozoites of Acanthamoeba polyphaga 5SU assessed as increase in reduction in cell count at 20 mM in peptone yeast extract glucose medium at pH 7 after 6 hrs by hemocytometer using trypan blue stain; type: functional, organism-based
[14] = system: Acanthamoeba hatchetti; assay: Amoebicidal activity against Trophozoites of Acanthamoeba hatchetti 11DS assessed as increase in reduction in cell count at 20 mM in peptone yeast extract glucose medium at pH 7 after 6 hrs by hemocytometer using trypan blue stain in presence of 68 mM ammonium chloride; type: functional, organism-based
[15] = system: Acanthamoeba polyphaga; assay: Amoebicidal activity against Trophozoites of Acanthamoeba polyphaga 5SU assessed as reduction in cell count at 20 mM in peptone yeast extract glucose medium at pH 7 after 6 hrs by hemocytometer using trypan blue stain in presence of 580 mM ammonium chloride; type: functional, organism-based
[16] = system: Acanthamoeba hatchetti; assay: Amoebicidal activity against Trophozoites of Acanthamoeba hatchetti 11DS in peptone yeast extract glucose medium at pH 7 after 1 hr by hemocytometer using trypan blue stain; type: functional, organism-based
[17] = system: Acanthamoeba hatchetti; assay: Amoebicidal activity against Trophozoites of Acanthamoeba hatchetti 11DS in peptone yeast extract glucose medium at pH 7 after 1 hr by hemocytometer using trypan blue stain in presence of 68 mM ammonium chloride; type: functional, organism-based
[18] = system: Acanthamoeba polyphaga; assay: Amoebicidal activity against Trophozoites of Acanthamoeba polyphaga 5SU in peptone yeast extract glucose medium at pH 7 after 1 hr by hemocytometer using trypan blue stain in presence of 68 mM ammonium chloride; type: functional, organism-based
[19] = system: Acanthamoeba hatchetti; assay: Amoebicidal activity against Trophozoites of Acanthamoeba hatchetti 11DS in phosphate buffered saline at pH 7 after 6 hrs by hemocytometer using trypan blue stain; type: functional, organism-based
[20] = system: Acanthamoeba hatchetti; assay: Amoebicidal activity against Trophozoites of Acanthamoeba hatchetti 11DS in peptone yeast extract glucose medium at pH 7 after 24 hrs by hemocytometer using trypan blue stain; type: functional, organism-based
[21] = system: Acanthamoeba polyphaga; assay: Amoebicidal activity against Trophozoites of Acanthamoeba polyphaga 5SU in phosphate buffered saline at pH 7 after 24 hrs by hemocytometer using trypan blue stain; type: functional, organism-based
[22] = system: Acanthamoeba polyphaga; assay: Amoebicidal activity against Trophozoites of Acanthamoeba polyphaga 5SU in peptone yeast extract glucose medium at pH 7 after 24 hrs by hemocytometer using trypan blue stain; type: functional, organism-based
[23] = system: Acanthamoeba polyphaga; assay: Amoebicidal activity against Trophozoites of Acanthamoeba polyphaga 5SU in peptone yeast extract glucose medium at pH 7 after 24 hrs by hemocytometer using trypan blue stain in presence of 68 mM ammonium chloride; type: functional, organism-based
[24] = system: Acanthamoeba castellanii; assay: Amoebicidal activity against excysted trophozoites of Acanthamoeba castellanii 40AB at 55 mM in peptone yeast extract glucose medium after 24 hrs by hemocytometer using trypan blue stain; type: functional
[25] = system: Acanthamoeba castellanii; assay: Amoebicidal activity against excysted trophozoites of Acanthamoeba castellanii 4CL at 55 mM in peptone yeast extract glucose medium after 4 days by hemocytometer using trypan blue stain; type: functional
[26] = system: Acanthamoeba castellanii; assay: Amoebicidal activity against excysted trophozoites of Acanthamoeba castellanii 40AB at 55 mM in peptone yeast extract glucose medium after 4 days by hemocytometer using trypan blue stain; type: functional
[27] = system: Acanthamoeba polyphaga; assay: Amoebicidal activity against excysted trophozoites of Acanthamoeba polyphaga 5SU at 55 mM in peptone yeast extract glucose medium after 4 days by hemocytometer using trypan blue stain; type: functional
[28] = system: Acanthamoeba castellanii; assay: Amoebicidal activity against excysted trophozoites of Acanthamoeba castellanii 40AB at 55 mM in peptone yeast extract glucose medium after 6 days by hemocytometer using trypan blue stain; type: functional
[29] = system: Acanthamoeba castellanii; assay: Amoebicidal activity against excysted trophozoites of Acanthamoeba castellanii 4CL at 55 mM in peptone yeast extract glucose medium after 11 days by hemocytometer using trypan blue stain; type: functional
[30] = system: Acanthamoeba castellanii; assay: Amoebicidal activity against excysted trophozoites of Acanthamoeba castellanii 40AB at 55 mM in peptone yeast extract glucose medium after 11 days by hemocytometer using trypan blue stain; type: functional
[31] = system: Acanthamoeba hatchetti; assay: Amoebicidal activity against excysted trophozoites of Acanthamoeba hatchetti 11DS at 55 mM in peptone yeast extract glucose medium after 11 days by hemocytometer using trypan blue stain; type: functional
[32] = system: Acanthamoeba polyphaga; assay: Amoebicidal activity against Trophozoites of Acanthamoeba polyphaga 5SU assessed as complete loss of viability at 55 mM in phosphate buffered saline after 24 hrs by hemocytometer using trypan blue stain in presence of 190 mM ammonium chloride; type: functional, organism-based
[33] = system: Acanthamoeba hatchetti; assay: Amoebicidal activity against Trophozoites of Acanthamoeba hatchetti 11DS assessed as complete loss of viability at 55 mM in phosphate buffered saline incubated in xenic agar medium after 14 days by hemocytometer using trypan blue stain in presence of 190 mM ammonium chloride; type: functional, organism-based
[34] = system: Acanthamoeba hatchetti; assay: Amoebicidal activity against Trophozoites of Acanthamoeba hatchetti 11DS assessed as log reduction in cell count at 10 mM in phosphate buffered saline at pH 7 after 6 hrs by hemocytometer using trypan blue stain; type: functional

Question: `O=S(=O)(O)CCNCl` was tested. Which Activity [1] did it give?
Answer: Active

Question: And the Activity [2]?
Answer: Active

Question: And the Activity [3]?
Answer: Active

Question: What about the Activity [4] of the same compound?
Answer: 24 h

Question: And the Activity [5]?
Answer: Active

Question: What about the Activity [6] of the same compound?
Answer: Active

Question: What about the Activity [7] of the same compound?
Answer: Active

Question: What about the Activity [8] of the same compound?
Answer: Active

Question: What about the Activity [9] of the same compound?
Answer: 2

Question: What about the Activity [10] of the same compound?
Answer: 2

Question: And the Activity [11]?
Answer: 2

Question: And the Activity [12]?
Answer: 36 h

Question: What about the Activity [13] of the same compound?
Answer: Active

Question: What about the Activity [14] of the same compound?
Answer: Active

Question: And the Activity [15]?
Answer: Active

Question: What about the EC50 [16] of the same compound?
Answer: 10.1 mM

Question: What about the EC50 [17] of the same compound?
Answer: 13.9 mM

Question: And the EC50 [18]?
Answer: 16.6 mM

Question: What about the EC50 [19] of the same compound?
Answer: 3.89 mM

Question: And the EC90 [19]?
Answer: 7.71 mM

Question: What about the EC50 [20] of the same compound?
Answer: 7.38 mM

Question: What about the EC50 [21] of the same compound?
Answer: 3.47 mM

Question: What about the EC90 [21] of the same compound?
Answer: 7.38 mM

Question: And the EC50 [22]?
Answer: 8.1 mM

Question: What about the EC50 [23] of the same compound?
Answer: 10.2 mM

Question: What about the Activity [24] of the same compound?
Answer: 0

Question: And the Activity [25]?
Answer: 2000

Question: What about the Activity [26] of the same compound?
Answer: 13000

Question: And the Activity [27]?
Answer: 8000

Question: And the Activity [28]?
Answer: 38000

Question: And the Activity [29]?
Answer: 100000

Question: And the Activity [30]?
Answer: 130000

Question: And the Activity [31]?
Answer: 410000

Question: And the Activity [32]?
Answer: Active

Question: And the Activity [33]?
Answer: inactive

Question: And the Activity [34]?
Answer: 2
